{"source": "paper PMC9412861", "about": "“Understanding the pH Dependence of Supersaturation State—A Case Study of Telmisartan” (Pharmaceutics, 2022)", "format_in_all_cases": "physicochemical", "key": {"[1]": {"assay": "Analysis of solubility-pH data with pDISOL-X", "conditions": "from thermodynamic solubility-pH data in distilled water", "source_text": "For the analysis of solubility-pH profile, the pDISOL-X^TM program (in-ADME Research, NY, USA) was used. The mathematical approach used in the program for log S-pH simulation-refinement has been described by Völgyi et al.. The program has been applied in several other recent studies."}, "[2]": {"assay": "Kinetic solubility measurement (µDISS profiler)", "protocol": "The kinetic solubility measurements of TEL were determined using µDISS™ profiler (Pion Inc., Billerica, MA, USA). The method was described earlier by Kadar et al.."}, "[3]": {"assay": "Thermodynamic (equilibrium) solubility, saturation shake-flask, in Prisma HT buffer", "conditions": "thermodynamic from solid", "protocol": "The methods for thermodynamic solubility measurements can be found in Baka et al. (measured amount of TEL: 1 mg/mL, 37 °C, 6 h strirring, 18 h sedimentation). During the thermodynamic solubility measurements in Prisma buffers the concentration of the API was determined without filtering the solutions by the Rainbow Dynamic Dissolution Monitor instrument (Pion Inc., Billerica, MA, USA). In the case of solubility measurements in distilled water, the concentration of the API after filtration with PVDF membrane (0.22 µm) was determined by Jasco V-550 UV–vis spectrophotometer (Jasco Inc., Easton, MD, USA)."}}, "note": "Like-named read-outs stand apart in the source and are kept apart here.", "data": [{"smiles": "CCCc1nc2c(C)cc(-c3nc4ccccc4n3C)cc2n1Cc1ccc(-c2ccccc2C(=O)O)cc1", "note": "[Telmisartan, telmisartan]", "values": [{"measurement": "dimerization constant logK21", "setting": "[1]", "result": "6.48 ± 0.19"}, {"measurement": "dimerization constant logK22", "setting": "[1]", "result": "6.35 ± 0.47"}, {"measurement": "solubility", "setting": "[1]; thermodynamic from solid, read-out: calculated intrinsic solubility logS0 (converted)", "result": 0.302, "unit": "µM"}, {"measurement": "pH range of minimal kinetic solubility", "setting": "[2]; Prisma HT buffer, 37 °C", "result": "3–6"}, {"measurement": "pH range in which a supersaturated solution is formed", "setting": "[2]; based on kinetic solubility results", "result": "3–8"}, {"measurement": "difference between thermodynamic and kinetic solubility", "setting": "[2]; more acidic pHs (below pH 3)", "result": "no significant difference"}, {"measurement": "difference between thermodynamic and kinetic solubility", "setting": "[2]; pH = 3 to pH = 8", "result": "near two-magnitude difference"}, {"measurement": "solubility thermodynamic at 6 h", "setting": "[3]; aqueous buffer, pH 2.15, 37 °C, read-out: Equilibrium solubility S ± SD", "result": "0.119 ± 0.0118", "unit": "mg/mL"}, {"measurement": "solubility thermodynamic at 6 h", "setting": "[3]; aqueous buffer, pH 2.15, 37 °C, read-out: Equilibrium solubility logS ± SD (converted)", "result": 229, "unit": "µM"}, {"measurement": "solubility thermodynamic at 6 h", "setting": "[3]; aqueous buffer, pH 3.08, 37 °C, read-out: Equilibrium solubility S ± SD", "result": "0.0131 ± 0.00173", "unit": "mg/mL"}, {"measurement": "solubility thermodynamic at 6 h", "setting": "[3]; aqueous buffer, pH 3.08, 37 °C, read-out: Equilibrium solubility logS ± SD (converted)", "result": 25.1, "unit": "µM"}, {"measurement": "solubility thermodynamic at 6 h", "setting": "[3]; aqueous buffer, pH 3.82, 37 °C, read-out: Equilibrium solubility S ± SD", "result": "0.00362 ± 0.00059", "unit": "mg/mL"}, {"measurement": "solubility thermodynamic at 6 h", "setting": "[3]; aqueous buffer, pH 3.82, 37 °C, read-out: Equilibrium solubility logS ± SD (converted)", "result": 7.08, "unit": "µM"}, {"measurement": "solubility thermodynamic at 6 h", "setting": "[3]; aqueous buffer, pH 7.88, 37 °C, read-out: Equilibrium solubility S ± SD", "result": "0.0115 ± 0.00026", "unit": "mg/mL"}, {"measurement": "solubility thermodynamic at 6 h", "setting": "[3]; aqueous buffer, pH 7.88, 37 °C, read-out: Equilibrium solubility logS ± SD (converted)", "result": 22.4, "unit": "µM"}, {"measurement": "solubility thermodynamic at 6 h", "setting": "[3]; aqueous buffer, pH 9.00, 37 °C, read-out: Equilibrium solubility S ± SD", "result": "0.13 ± 0.00273", "unit": "mg/mL"}, {"measurement": "solubility thermodynamic at 6 h", "setting": "[3]; aqueous buffer, pH 9.00, 37 °C, read-out: Equilibrium solubility logS ± SD (converted)", "result": 251, "unit": "µM"}, {"measurement": "solubility thermodynamic at 6 h", "setting": "[3]; aqueous buffer, pH 9.79, 37 °C, read-out: Equilibrium solubility S ± SD", "result": "1.47 ± 0.255", "unit": "mg/mL"}, {"measurement": "solubility thermodynamic at 6 h", "setting": "[3]; aqueous buffer, pH 9.79, 37 °C, read-out: Equilibrium solubility logS ± SD (converted)", "result": 2880, "unit": "µM"}, {"measurement": "solubility thermodynamic at 6 h", "setting": "[3]; aqueous buffer, pH 11.74, 37 °C, read-out: Equilibrium solubility S ± SD", "result": "2.25 ± 0.145", "unit": "mg/mL"}, {"measurement": "solubility thermodynamic at 6 h", "setting": "[3]; aqueous buffer, pH 11.74, 37 °C, read-out: Equilibrium solubility logS ± SD (converted)", "result": 4370, "unit": "µM"}, {"measurement": "solubility thermodynamic at 6 h", "setting": "[3]; pH 1.6, aqueous buffer, pH 1.60, 37 °C, read-out: Equilibrium solubility S ± SD", "result": "0.15 ± 0.038", "unit": "mg/mL"}, {"measurement": "solubility thermodynamic at 6 h", "setting": "[3]; pH 1.6, aqueous buffer, pH 1.60, 37 °C, read-out: Equilibrium solubility logS ± SD (converted)", "result": 288, "unit": "µM"}, {"measurement": "solubility thermodynamic at 6 h", "setting": "[3]; pH 2.5, aqueous buffer, pH 2.50, 37 °C, read-out: Equilibrium solubility S ± SD", "result": "0.017 ± 0.00072", "unit": "mg/mL"}, {"measurement": "solubility thermodynamic at 6 h", "setting": "[3]; pH 2.5, aqueous buffer, pH 2.50, 37 °C, read-out: Equilibrium solubility logS ± SD (converted)", "result": 47.9, "unit": "µM"}, {"measurement": "solubility thermodynamic at 6 h", "setting": "[3]; pH 6.5, aqueous buffer, pH 6.50, 37 °C, read-out: Equilibrium solubility S ± SD", "result": "0.00079 ± 0.00016", "unit": "mg/mL"}, {"measurement": "solubility thermodynamic at 6 h", "setting": "[3]; pH 6.5, aqueous buffer, pH 6.50, 37 °C, read-out: Equilibrium solubility logS ± SD (converted)", "result": 1.58, "unit": "µM"}, {"measurement": "solubility thermodynamic at 6 h", "setting": "[3]; pH 9.4, aqueous buffer, pH 9.40, 37 °C, read-out: Equilibrium solubility S ± SD", "result": "0.275 ± 0.0094", "unit": "mg/mL"}, {"measurement": "solubility thermodynamic at 6 h", "setting": "[3]; pH 9.4, aqueous buffer, pH 9.40, 37 °C, read-out: Equilibrium solubility logS ± SD (converted)", "result": 537, "unit": "µM"}]}]}
